Measurements reported in ChEMBL document CHEMBL1133914, “Conformationally restricted indolopiperidine derivatives as potent CCR2B receptor antagonists” (Bioorg Med Chem Lett, 2001).
Several values for one entry are separate records, joined by “and”; a condition that tells them apart may be missing. Equal entries are not always repeated. Activity calls are given as the source filed them. No cut-off for these calls is given here.

How the values were obtained:
[1] = target: T1, C-C chemokine receptor type 2 (Homo sapiens, UniProt P41597); test: (§1) Inhibition of [125I]MCP-1 binding to the cloned C-C chemokine receptor type 2B expressed in CHO cells; type: cell-based
Target sequence in this assay (P41597 whole entry): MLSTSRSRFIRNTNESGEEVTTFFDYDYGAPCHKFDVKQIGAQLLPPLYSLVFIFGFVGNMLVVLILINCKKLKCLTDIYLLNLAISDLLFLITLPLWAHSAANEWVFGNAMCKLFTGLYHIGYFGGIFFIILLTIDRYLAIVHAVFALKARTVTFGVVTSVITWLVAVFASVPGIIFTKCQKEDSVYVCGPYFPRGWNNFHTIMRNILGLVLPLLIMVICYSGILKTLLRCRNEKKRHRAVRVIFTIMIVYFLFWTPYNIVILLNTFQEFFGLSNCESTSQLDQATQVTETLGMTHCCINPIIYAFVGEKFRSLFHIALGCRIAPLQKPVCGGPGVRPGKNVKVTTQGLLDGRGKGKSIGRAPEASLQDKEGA

[2] = target: T1, C-C chemokine receptor type 2; test: as §1; type: cell-based; remark: listed apart in the source
Target sequence in this assay (P41597 whole entry): as above

[3] = target: T1, C-C chemokine receptor type 2; test: as §1; type: cell-based; remark: listed apart in the source
Target sequence in this assay (P41597 whole entry): as above

[4] = target: T2, 5-hydroxytryptamine receptor 6 (Homo sapiens, UniProt P50406); test: Binding affinity for 5-hydroxytryptamine 6 receptor was determined
[5] = target: T3, 5-hydroxytryptamine receptor 2C (Homo sapiens, UniProt P28335); test: Binding affinity for 5-hydroxytryptamine 2C receptor was determined
T3 sequence (P28335 whole entry): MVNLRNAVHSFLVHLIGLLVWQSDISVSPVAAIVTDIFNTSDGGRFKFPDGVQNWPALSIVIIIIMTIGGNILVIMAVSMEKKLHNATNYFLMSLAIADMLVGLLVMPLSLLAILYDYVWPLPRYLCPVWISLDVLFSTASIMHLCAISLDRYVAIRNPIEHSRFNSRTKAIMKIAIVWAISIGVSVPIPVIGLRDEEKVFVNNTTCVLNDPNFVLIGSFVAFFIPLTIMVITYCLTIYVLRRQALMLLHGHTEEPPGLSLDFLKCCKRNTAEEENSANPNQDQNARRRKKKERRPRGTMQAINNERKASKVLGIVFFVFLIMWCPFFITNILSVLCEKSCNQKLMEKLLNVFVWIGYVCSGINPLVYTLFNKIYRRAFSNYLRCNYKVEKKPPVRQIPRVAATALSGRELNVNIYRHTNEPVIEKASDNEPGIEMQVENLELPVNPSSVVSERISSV

[6] = target: T4, 5-hydroxytryptamine receptor 2B (Homo sapiens, UniProt P41595); test: Binding affinity for 5-hydroxytryptamine 2B receptor was determined
[7] = target: T5, 5-hydroxytryptamine receptor 1E (Homo sapiens, UniProt P28566); test: Binding affinity for 5-hydroxytryptamine 1E receptor was determined
[8] = target: T6, 5-hydroxytryptamine receptor 2A (Homo sapiens, UniProt P28223); test: Binding affinity for 5-hydroxytryptamine 2A receptor was determined
[9] = target: T7, 5-hydroxytryptamine receptor 1F (Homo sapiens, UniProt P30939); test: Binding affinity for 5-hydroxytryptamine 1F receptor was determined
T7 sequence (P30939 whole entry): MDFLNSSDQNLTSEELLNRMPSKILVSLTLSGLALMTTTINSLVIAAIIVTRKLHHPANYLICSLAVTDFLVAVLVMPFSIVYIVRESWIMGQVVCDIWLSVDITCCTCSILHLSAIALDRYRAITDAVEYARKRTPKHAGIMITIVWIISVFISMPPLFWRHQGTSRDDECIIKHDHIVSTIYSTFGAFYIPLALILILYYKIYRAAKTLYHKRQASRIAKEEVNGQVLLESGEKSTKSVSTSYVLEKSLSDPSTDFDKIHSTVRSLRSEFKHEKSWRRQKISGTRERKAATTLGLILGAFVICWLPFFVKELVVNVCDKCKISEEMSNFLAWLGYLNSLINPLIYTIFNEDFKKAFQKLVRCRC

[10] = target: T8, 5-hydroxytryptamine receptor 7 (Homo sapiens, UniProt P34969); test: Binding affinity for 5-hydroxytryptamine 7 receptor was determined
D(3) dopamine receptor [11] = target: T9, D(3) dopamine receptor (Homo sapiens, UniProt P35462); test: Binding affinity for Dopamine receptor D3 was determined
[12] = target: T10, 5-hydroxytryptamine receptor 1A (Homo sapiens, UniProt P08908); test: Binding affinity for 5-hydroxytryptamine 1A receptor was determined
T10 sequence (P08908 whole entry): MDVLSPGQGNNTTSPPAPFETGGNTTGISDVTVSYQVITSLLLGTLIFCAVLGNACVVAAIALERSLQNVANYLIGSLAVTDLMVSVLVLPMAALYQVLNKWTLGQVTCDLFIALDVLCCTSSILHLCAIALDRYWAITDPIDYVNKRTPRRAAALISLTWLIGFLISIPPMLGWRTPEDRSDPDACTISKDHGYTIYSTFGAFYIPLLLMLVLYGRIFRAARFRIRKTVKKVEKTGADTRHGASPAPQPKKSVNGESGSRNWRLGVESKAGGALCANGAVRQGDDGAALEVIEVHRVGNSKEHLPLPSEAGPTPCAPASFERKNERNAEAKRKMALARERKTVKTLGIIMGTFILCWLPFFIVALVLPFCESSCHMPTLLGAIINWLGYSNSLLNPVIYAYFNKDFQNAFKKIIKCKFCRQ

D(2) dopamine receptor [13] = target: T11, D(2) dopamine receptor (Homo sapiens, UniProt P14416); test: Binding affinity for Dopamine receptor D2 was determined
[14] = target: T12, 5-hydroxytryptamine receptor 1B (Homo sapiens, UniProt P28222); test: Binding affinity for 5-hydroxytryptamine 1B receptor was determined
[15] = target: T8, 5-hydroxytryptamine receptor 7; test: (§2) Binding affinity relative to indolopiperidine (compound 1) for 5-hydroxytryptamine 7 receptor was determined
[16] = target: T13, 5-hydroxytryptamine receptor 1A (Homo sapiens) (UniProt P08908); test: Binding affinity relative to indolopiperidine (compound 1) for 5-hydroxytryptamine 1A receptor was determined
T13 sequence (whole entry): T10 sequence (P08908 whole entry)

[17] = target: T12, 5-hydroxytryptamine receptor 1B; test: Binding affinity relative to indolopiperidine (compound 1) for 5-hydroxytryptamine 1B receptor was determined
D(2) dopamine receptor [18] = target: T11, D(2) dopamine receptor; test: (§3) Binding affinity relative to indolopiperidine (compound 1) for Dopamine receptor D2 was determined
[19] = target: T4, 5-hydroxytryptamine receptor 2B; test: Binding affinity relative to indolopiperidine (compound 1) for 5-hydroxytryptamine 2B receptor was determined
[20] = target: T5, 5-hydroxytryptamine receptor 1E; test: Binding affinity relative to indolopiperidine (compound 1) for 5-hydroxytryptamine 1E receptor was determined
[21] = target: T14, 5-hydroxytryptamine receptor 2C (Homo sapiens) (UniProt P28335); test: Binding affinity relative to indolopiperidine (compound 1) for 5-hydroxytryptamine 2C receptor was determined
T14 sequence (whole entry): T3 sequence (P28335 whole entry)

[22] = target: T15, 5-hydroxytryptamine receptor 1F (Homo sapiens) (UniProt P30939); test: Binding affinity relative to indolopiperidine (compound 1) for 5-hydroxytryptamine 1F receptor was determined
T15 sequence (whole entry): T7 sequence (P30939 whole entry)

[23] = target: T1, C-C chemokine receptor type 2
Target sequence in this assay (P41597 whole entry, looked up): as the sequence (P41597 whole entry) above

D(3) dopamine receptor [24] = target: T9, D(3) dopamine receptor; test: (§4) Binding affinity relative to indolopiperidine (compound 1) for Dopamine receptor D3 was determined
[25] = target: T2, 5-hydroxytryptamine receptor 6; test: Binding affinity relative to indolopiperidine (compound 1) for 5-hydroxytryptamine 6 receptor was determined
[26] = target: T6, 5-hydroxytryptamine receptor 2A; test: Binding affinity relative to indolopiperidine (compound 1) for 5-hydroxytryptamine 2A receptor was determined
[27] = target: T1, C-C chemokine receptor type 2; test: Binding affinity for C-C chemokine receptor type 2B was determined
Target sequence in this assay (P41597 whole entry): as the sequence (P41597 whole entry) above

[28] = target: T1, C-C chemokine receptor type 2; test: Binding affinity relative to indolopiperidine (compound 1) forC-C chemokine receptor type 2B was determined
Target sequence in this assay (P41597 whole entry, looked up): as the sequence (P41597 whole entry) above

D(2) dopamine receptor [29] = target: T11, D(2) dopamine receptor; test: as §3; remark: listed apart in the source
[30] = target: T8, 5-hydroxytryptamine receptor 7; test: as §2; remark: listed apart in the source
D(3) dopamine receptor [31] = target: T9, D(3) dopamine receptor; test: as §4; remark: listed apart in the source
[32] = target: T1, C-C chemokine receptor type 2; test: Inhibition of [125I]MCP-1 binding to the cloned C-C chemokine receptor type 2B expressed in CHO cells; IA mean inactive; type: cell-based
Target sequence in this assay (P41597 whole entry, looked up): as the sequence (P41597 whole entry) above

[33] = target: T1, C-C chemokine receptor type 2; test: Inhibition of [125I]MCP-1 binding to the cloned C-C chemokine receptor type 2B expressed in CHO cells; IA means inactive; type: cell-based
Target sequence in this assay (P41597 whole entry, looked up): as the sequence (P41597 whole entry) above

[34] = target: T1, C-C chemokine receptor type 2; test: Binding affinity relative to indolopiperidine (compound 1) for C-C chemokine receptor type 2B was determined
Target sequence in this assay (P41597 whole entry, looked up): as the sequence (P41597 whole entry) above

[35] = target: T6, 5-hydroxytryptamine receptor 2A; test: Binding affinity relative to indolopiperidine (compound 1)for 5-hydroxytryptamine 2A receptor was determined

T4 sequence (P41595 whole entry): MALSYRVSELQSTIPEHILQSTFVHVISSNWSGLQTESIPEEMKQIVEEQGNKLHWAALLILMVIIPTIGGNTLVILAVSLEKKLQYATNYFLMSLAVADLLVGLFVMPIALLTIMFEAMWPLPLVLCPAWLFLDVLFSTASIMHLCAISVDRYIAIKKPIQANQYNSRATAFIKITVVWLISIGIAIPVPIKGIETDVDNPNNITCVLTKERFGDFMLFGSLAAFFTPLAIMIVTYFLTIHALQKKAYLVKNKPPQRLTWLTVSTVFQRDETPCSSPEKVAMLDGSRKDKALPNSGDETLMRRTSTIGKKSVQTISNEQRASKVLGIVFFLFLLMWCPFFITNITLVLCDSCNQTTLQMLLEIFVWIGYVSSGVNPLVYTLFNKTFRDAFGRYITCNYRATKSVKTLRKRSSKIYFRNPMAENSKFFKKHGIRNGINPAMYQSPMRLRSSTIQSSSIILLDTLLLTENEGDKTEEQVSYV
T2 sequence (P50406 whole entry): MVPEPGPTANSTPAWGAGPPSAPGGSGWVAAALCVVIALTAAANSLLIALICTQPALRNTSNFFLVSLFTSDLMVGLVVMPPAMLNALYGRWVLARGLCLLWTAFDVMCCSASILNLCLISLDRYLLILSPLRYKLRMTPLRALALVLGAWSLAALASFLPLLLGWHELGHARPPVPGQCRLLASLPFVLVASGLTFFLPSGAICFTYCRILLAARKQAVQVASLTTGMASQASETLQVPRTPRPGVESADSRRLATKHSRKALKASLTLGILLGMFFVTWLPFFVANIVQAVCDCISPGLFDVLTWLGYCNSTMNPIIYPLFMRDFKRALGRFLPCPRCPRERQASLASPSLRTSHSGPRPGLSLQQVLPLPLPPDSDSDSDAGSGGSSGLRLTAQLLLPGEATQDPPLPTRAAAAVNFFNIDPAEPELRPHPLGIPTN
T11 sequence (P14416 whole entry): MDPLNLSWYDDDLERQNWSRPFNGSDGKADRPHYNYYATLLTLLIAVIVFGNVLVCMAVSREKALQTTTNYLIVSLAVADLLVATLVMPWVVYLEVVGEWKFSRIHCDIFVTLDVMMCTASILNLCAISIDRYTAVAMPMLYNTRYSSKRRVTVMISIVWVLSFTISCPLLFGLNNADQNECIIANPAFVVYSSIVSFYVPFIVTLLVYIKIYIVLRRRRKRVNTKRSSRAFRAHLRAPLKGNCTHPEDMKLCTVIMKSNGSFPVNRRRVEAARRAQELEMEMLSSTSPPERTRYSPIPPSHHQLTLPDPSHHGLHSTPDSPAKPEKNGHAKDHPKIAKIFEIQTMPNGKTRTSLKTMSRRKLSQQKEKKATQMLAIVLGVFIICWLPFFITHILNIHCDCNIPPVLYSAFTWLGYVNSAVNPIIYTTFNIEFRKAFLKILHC
T9 sequence (P35462 whole entry): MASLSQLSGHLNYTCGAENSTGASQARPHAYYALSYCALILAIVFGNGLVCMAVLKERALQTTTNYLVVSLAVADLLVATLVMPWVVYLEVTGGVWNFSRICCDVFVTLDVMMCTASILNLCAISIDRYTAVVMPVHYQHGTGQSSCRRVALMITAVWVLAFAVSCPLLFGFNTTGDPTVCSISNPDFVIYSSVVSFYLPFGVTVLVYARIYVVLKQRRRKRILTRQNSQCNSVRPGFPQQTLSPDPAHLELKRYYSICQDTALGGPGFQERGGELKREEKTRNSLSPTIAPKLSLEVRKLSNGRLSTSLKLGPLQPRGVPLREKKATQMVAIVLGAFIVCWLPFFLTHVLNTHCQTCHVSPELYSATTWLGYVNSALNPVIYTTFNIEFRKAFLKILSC
T12 sequence (P28222 whole entry): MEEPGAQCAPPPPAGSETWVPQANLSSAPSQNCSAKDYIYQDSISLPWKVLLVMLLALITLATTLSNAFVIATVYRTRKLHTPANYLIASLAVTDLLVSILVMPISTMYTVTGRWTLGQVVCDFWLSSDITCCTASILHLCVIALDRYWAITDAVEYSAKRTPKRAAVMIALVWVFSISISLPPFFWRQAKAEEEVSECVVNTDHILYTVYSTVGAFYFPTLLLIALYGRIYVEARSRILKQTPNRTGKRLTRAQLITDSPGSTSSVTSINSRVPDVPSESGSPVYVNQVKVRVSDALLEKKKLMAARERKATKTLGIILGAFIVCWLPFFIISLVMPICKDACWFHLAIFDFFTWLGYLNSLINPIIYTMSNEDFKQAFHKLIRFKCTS
T8 sequence (P34969 whole entry): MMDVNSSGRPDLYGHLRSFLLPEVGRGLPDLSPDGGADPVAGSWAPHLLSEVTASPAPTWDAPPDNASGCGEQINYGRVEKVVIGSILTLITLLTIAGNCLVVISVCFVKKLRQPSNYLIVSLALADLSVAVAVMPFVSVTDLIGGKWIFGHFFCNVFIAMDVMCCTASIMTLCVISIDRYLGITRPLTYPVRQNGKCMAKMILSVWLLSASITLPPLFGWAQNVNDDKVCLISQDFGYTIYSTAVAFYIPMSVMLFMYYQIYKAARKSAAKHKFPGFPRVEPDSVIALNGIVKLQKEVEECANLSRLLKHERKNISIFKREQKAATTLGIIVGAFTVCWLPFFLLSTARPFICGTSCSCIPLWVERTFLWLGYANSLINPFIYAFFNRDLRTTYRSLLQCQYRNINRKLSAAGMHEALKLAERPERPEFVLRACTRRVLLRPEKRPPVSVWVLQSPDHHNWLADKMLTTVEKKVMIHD
T6 sequence (P28223 whole entry): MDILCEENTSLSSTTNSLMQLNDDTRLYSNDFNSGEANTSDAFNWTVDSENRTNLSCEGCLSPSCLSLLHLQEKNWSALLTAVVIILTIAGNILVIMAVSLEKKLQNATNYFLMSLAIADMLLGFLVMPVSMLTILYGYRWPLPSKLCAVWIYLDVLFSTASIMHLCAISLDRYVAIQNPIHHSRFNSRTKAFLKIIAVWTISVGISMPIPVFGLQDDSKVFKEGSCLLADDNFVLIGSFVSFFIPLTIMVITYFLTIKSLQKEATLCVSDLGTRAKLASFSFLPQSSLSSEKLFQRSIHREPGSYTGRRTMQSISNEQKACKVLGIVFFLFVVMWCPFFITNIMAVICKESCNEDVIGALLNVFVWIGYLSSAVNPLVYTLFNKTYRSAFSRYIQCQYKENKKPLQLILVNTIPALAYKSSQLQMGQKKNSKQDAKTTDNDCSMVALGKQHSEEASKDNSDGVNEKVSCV
T5 sequence (P28566 whole entry): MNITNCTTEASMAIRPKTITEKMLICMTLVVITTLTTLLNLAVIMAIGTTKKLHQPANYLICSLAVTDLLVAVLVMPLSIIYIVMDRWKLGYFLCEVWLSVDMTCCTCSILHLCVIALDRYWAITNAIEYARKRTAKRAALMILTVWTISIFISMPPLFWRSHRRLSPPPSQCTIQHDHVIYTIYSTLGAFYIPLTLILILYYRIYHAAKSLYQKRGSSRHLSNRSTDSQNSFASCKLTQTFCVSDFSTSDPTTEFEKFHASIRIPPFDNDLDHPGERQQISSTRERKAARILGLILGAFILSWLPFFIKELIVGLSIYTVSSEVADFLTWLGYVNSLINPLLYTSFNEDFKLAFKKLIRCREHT

O=C(/C=C/c1ccc(Cl)c(Cl)c1)N[C@H]1CC[C@@H](CN2CCC(c3c[nH]c4ccccc34)CC2)CC1
Ki [1]: 126 nM

O=C(/C=C/c1ccc(Cl)c(Cl)c1)NCCCCCN1[C@@H]2CC[C@H]1CC(c1c[nH]c3ccc(O)cc13)C2 (single isomer, unassigned)
Ki [2]: 630 nM
Ki [3]: 631 nM

O=C(/C=C/c1ccc(Cl)c(Cl)c1)NCCCCCN1CCC(c2c[nH]c3ccc(O)cc23)CC1
Ki [4]: 79.4 nM
Ki [5]: 79.4 nM
Ki [6]: 25.1 nM
Ki [7]: 6.31 nM
Ki [8]: 20 nM
Ki [9]: 3.16 nM
Ki [10]: 63.1 nM
Ki (D(3) dopamine receptor [11]): 7.94 nM
Ki [12]: 100 nM
Ki (D(2) dopamine receptor [13]): 15.8 nM
Ki [14]: 12.6 nM

O=C(/C=C/c1ccc(Cl)c(Cl)c1)NCCCCCN1[C@@H]2CC[C@H]1CC(c1c[nH]c3ccc(O)cc13)C2 (stereo in doubt) [listing 1 of 2 here]
Delta pKi [15]: -1.5
Delta pKi [16]: -1.1
Delta pKi [17]: -1.6
Delta pKi (D(2) dopamine receptor [18]): -1.7
Delta pKi [19]: -1.5
Delta pKi [20]: -3.2
Delta pKi [21]: -0.5
Delta pKi [22]: -2.7
Delta pKi [23]: -0.7
Delta pKi (D(3) dopamine receptor [24]): -1.4
Delta pKi [25]: -0.9
Delta pKi [26]: -0.9

O=C(/C=C/c1ccc(Cl)c(Cl)c1)N[C@H]1CC[C@@H](CN2[C@@H]3CC[C@H]2C[C@H](c2c[nH]c4ccc(O)cc24)C3)CC1
Ki [4]: 2000 nM
Ki [5]: > 3160 nM
Ki [6]: 501 nM
Ki [27]: 40 nM
Ki [7]: > 6310 nM
Ki [8]: > 20000 nM
Delta pKi [15]: > -1.9
Delta pKi [28]: 0.1
Ki (D(2) dopamine receptor [29]): 1260 nM
Ki [9]: > 3160 nM
Delta pKi [16]: -1.9
Delta pKi [17]: -1.9
Delta pKi (D(2) dopamine receptor [18]): -1.9
Delta pKi [19]: -1.3
Delta pKi [20]: > -3.2
Log Ki [30]: < -6.1
Delta pKi [21]: > -1.6
Delta pKi [22]: > -3
Ki [12]: 7940 nM
Delta pKi (D(3) dopamine receptor [24]): -2.5
Delta pKi [25]: -1.4
Ki (D(3) dopamine receptor [31]): 2510 nM
Delta pKi [26]: -3
Ki [3]: 39.8 nM
Ki [14]: 1000 nM

O=C(/C=C/c1ccc(Cl)c(Cl)c1)NCc1cccc(CN2CCC(c3c[nH]c4ccccc34)CC2)c1
Log Ki [32]: inactive

O=C(/C=C/c1ccc(Cl)c(Cl)c1)NCCCCCN1[C@@H]2CC[C@H]1CC(c1c[nH]c3ccc(O)cc13)C2 (stereo in doubt) [listing 2 of 2 here]
Ki [1]: 251 nM
Ki [3]: 251 nM

O=C(/C=C/c1ccc(Cl)c(Cl)c1)Nc1ccc(CN2CCC(c3c[nH]c4ccccc34)CC2)cc1
Log Ki [33]: inactive

O=C(/C=C/c1ccc(Cl)c(Cl)c1)N[C@H]1CC[C@@H](CN2CCC(c3c[nH]c4ccc(O)cc34)CC2)CC1
Ki [2]: 79 nM and 126 nM
Delta pKi [15]: -0.4
Delta pKi [34]: -0.2
Delta pKi [16]: -0.7
Delta pKi [17]: -1.2
Delta pKi (D(2) dopamine receptor [18]): -0.8
Delta pKi [19]: -0.5
Delta pKi [20]: -1.4
Delta pKi [21]: -0.4
Delta pKi [22]: -2.6
Delta pKi (D(3) dopamine receptor [24]): -0.9
Delta pKi [25]: -0.9
Delta pKi [35]: -0.1
Ki [3]: 79.4 nM
